The results in this text go back to patent publication US11220524B2, “Selective inhibitors of protein arginine methyltransferase 5 (PRMT5)” (PRELUDE THERAPEUTICS, INCORPORATED, priority 2017, dated 2022).

One data set concerns the target PRMT5/MEP50 complex (Homo sapiens (Human), UniProt O14744). Briefly: Biochemical assay: PRMT5/MEP50 methylation of histone H2A with 3H-SAM, filter plate scintillation. The essentials:
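5 nM PRMT5/MEP50 preincubated with compound 15–20 min at room temperature, with 5 μM histone H2A as substrate; reaction started with 1 μM 3H-SAM and run 60 min at 30 °C. TCA-stopped, filter-captured methylation counted by scintillation; IC50 from 4-parameter Hill fit.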

The nature of data set [1]: In vivo pharmacokinetic study in rat (i.v. and p.o.). Conditions: rat SD male non-fasted; for clearance / half-life / Vd / bioavailability: blood; for clearance / half-life / Vd: iv; for half-life: read-out: T1/2 (printed T2) (converted); for Vd: read-out: Vss; for bioavailability: po. How it is done: In Vivo Pharmacokinetic Properties of Example 36.
In a rat (SD, male, non-fasted) non-crossover cassette PK study, Example 36 was dosed at 0.25 mg/kg via i.v. administration (N=3) and 2 mg/kg via oral gauge (p.o.) (N=3) with other 3 compounds.
In Vivo Pharmacokinetic Properties of Example 92.
In a rat (SD, male, non-fasted) non-crossover PK study, Example 92 was dosed at 1 mg/kg (DMA: 20% HPBCD=5:95, solution) via i.v. administration (N=2) and 1 mg/kg (0.5% Na CMC+0.5% Tween80, solution) via oral gauge (p.o.) (N=2).

Data set [2] relates to sDMA in Granta-519 tumors. The data set can be described thus: In vivo pharmacodynamic effect: sDMA levels in tumor samples of Granta-519 mouse xenograft model. As to conditions: 50 mg/kg orally QD for 14 days. The procedure:
(§1) In Vivo Pharmacodynamic Effect of Example 36 in Granta-519 Mouse Xenograft Model.
(§2) Granta-519 cells was maintained in DMEM medium supplemented with 10% fetal bovine serum and 2 mM L-Glutamine at 37° C. in an atmosphere of 5% C02 in air. Cells in exponential growth phase were harvested and 1×10^7 cells in 0.1 mL of PBS with Matrigel (1:1) were injected subcutaneously at the right lower flank region of each mouse for tumor development. The treatments were started when the mean tumor size reaches approximately 300-400 mm^3. […] Example 36 or vehicle (0.5% methylcellulose+0.1% Tween 80) were administered orally (BID for Example 36, QD for vehicle) at a dose of 25 mg/kg for 6 days. Body weights and tumor size were measured thrice weekly after randomization. Animals were euthanized 4 hours after last dosing on day 6, and blood and tumor samples were collected for analysis.
To measure sDMA levels in tumor samples, tumors from each mouse were weighted and homogenized in RIPA buffer supplemented with protease inhibitor (cOmplete™, EDTA-free Protease Inhibitor Cocktail, Roche). […] Total protein concentrations of lysate were determined by BCA assay (ThermoFisher Scientific, Catalog #: 23225). Equal amount of total proteins from each tumor were separated on SDS-PAGE gel, and sDMA levels were determined by WB as described previously. […]

In data set [3] the test system is Granta-519 mouse xenograft. The data set can be described thus: Tumor growth inhibition and body weight in Granta-519 mouse xenograft model. It is filed as in vivo. As to conditions: 50 mg/kg orally QD for 14 days. How it is done:
as §1, §2
Example 92 or vehicle (0.5% Na CMC+0.5% Tween80, suspension) were administered orally (QD for Example 92, QD for vehicle) at a dose of 50 mg/kg for 14 days. Body weights and tumor size were measured every 3 to 4 days after randomization. Animals were euthanized 4 hours after last dosing, and blood and tumor samples were collected for analysis.

A further data set in a line: physchem. As to conditions: for solubility at 4 h: 25 °C, fassif, thermodynamic from solid. How it is done:
Compounds were first dispersed in freshly prepared FaSSIF (http://biorelevant.com/site_media/upload/documents/How_to_make_FaSSIF_FeSSIF_and_FaSSGF.pdf) buffer in 1 mg/mL respectively, and the standard samples were prepared by preparing 1 mg/mL of test compounds in DMSO. The compounds were then sufficient mixed by vortex mixer for 30 sec, and agitated at 25° C. using 300 rpm form 4 hour in thermo mixer. After incubation, the prepared samples were centrifuged at 10000 rpm for 10 min to remove the undissolved solid, the resulting supernatants were applied to HPLC. The actual concentrations of the compounds were evaluated by measuring the peak area, and the solubility (S) of compounds was calculated according to following equation: S=Csmp=Cstd*(Asmp/Astd)*(Vstd/Vsmp) Where C is the sample concentration in μg/mL, A is the peak area, and V is the injection volume.

The subject of data set [4] is Symmetric Di-Methyl Arginine (sDMA) in Granta-519 cells. Briefly: Western blot for symmetric di-methyl arginine (sDMA) marks in Granta cells, 3 days treatment. Format: cell-based. Conditions: Homo sapiens, 72 h; Granta-519 cell line, 3 days. In general terms: A western blot detects proteins with antibodies after separation by electrophoresis.
Another data set has as its system Granta-519 cells. The data set can be described thus: Cell proliferation assay on Granta-519 cells (CCK-8, day 10). Format: cell-based. Conditions: Homo sapiens, 240 h, Granta-519 cell line, read-out: Proliferation IC50. How it is done: Cell Proliferation Assay to Determine IC50 on Granta-519 Cells
Granta-519 cells were maintained in PRMI 1640 (Corning Cellgro, Catalog #: 10-040-CV) medium supplemented with 10% v/v FBS (GE Healthcare, Catalog #: SH30910.03). Compounds were dissolved in DMSO to make 10 mM stocks and stored at −20° C. Nine-point, 3-fold serial dilutions were made with DMSO with top concentration at 1 mM (working stocks).
On day of experiment, compound working stocks were further diluted at 1:50 with fresh medium in 96 well plate, and 10 μL of diluted drugs were added to a new 96 well plate for proliferation assay. Cells growing at exponential phase were spun down at 1500 rpm for 4 min and resuspend in fresh medium to reach a density of 0.5×10^6 cells/ml. 200 ul of cells were added to 96 well plate containing diluted drugs and incubated for 3 days. DMSO was used a vehicle control.
One day 3, 10 μL of Cell Counting Kit-8 (CCK-8, Jojindo, CK04-13) solution was added to a new 96 well plate. Cells incubated with drugs for 3 days were resuspended by pipetting up and down, and 100 μL of cells were transferred to 96 well plate containing CCK-8 reagent to measure viable cells. Plates were incubated in C02 incubator for 2 hours and OD450 values were measured with a microplate reader (iMark microplate reader, Bio-Rad).
For re-plating, compound working stocks were diluted at 1:50 with fresh medium and 10 μL of diluted drugs were added to anew 96 well plate. Cells from Day 3plate (50 ul) were added to 96 well plate containing fresh drug and additional 150 of fresh medium was added to reach 200 ul volume. Plate was returned to CO2incubator and incubated for 3more days. Viable cells measurement and re-plating were repeated on day 6, and the final viable cells measurement was taken on day 10.
Percentage of viable cells, relative to DMSO vehicle control, were calculated and plotted in Graphpad Prism ([Inhibitor] vs. normalized response-Variable slope) to determine proliferation IC50 values on day 10.

Where [5] appears, read: histone H2A 5 μM, SAM 1 μM, enzyme 5 nM, read-out: PRMT5/MEP50 IC50.

Values after ≈ are worked out from the molar mass of the structure shown. Structures can show the parent of a compound that is named as a salt. Where two headings read alike, the source gives them in different places.

Sequence of PRMT5/MEP50 complex (O14744 whole entry): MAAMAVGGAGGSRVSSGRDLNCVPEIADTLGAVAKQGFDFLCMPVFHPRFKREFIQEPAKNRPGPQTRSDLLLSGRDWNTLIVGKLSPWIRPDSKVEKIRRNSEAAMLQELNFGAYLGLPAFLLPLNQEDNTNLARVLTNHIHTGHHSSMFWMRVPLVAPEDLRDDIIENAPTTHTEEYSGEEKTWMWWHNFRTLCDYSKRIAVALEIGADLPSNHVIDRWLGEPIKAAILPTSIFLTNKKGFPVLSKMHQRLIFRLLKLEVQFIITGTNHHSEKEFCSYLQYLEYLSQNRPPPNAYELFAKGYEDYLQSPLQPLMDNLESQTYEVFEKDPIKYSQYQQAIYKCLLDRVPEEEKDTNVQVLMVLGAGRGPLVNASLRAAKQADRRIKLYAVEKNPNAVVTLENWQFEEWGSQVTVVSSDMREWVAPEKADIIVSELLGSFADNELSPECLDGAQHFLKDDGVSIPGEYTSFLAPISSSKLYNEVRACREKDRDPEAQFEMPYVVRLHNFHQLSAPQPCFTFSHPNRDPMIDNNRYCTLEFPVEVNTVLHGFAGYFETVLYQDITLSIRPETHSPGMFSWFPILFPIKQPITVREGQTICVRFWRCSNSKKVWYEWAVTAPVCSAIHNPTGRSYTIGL
Sequence of PRMT5/MEP50 complex (Q9BQA1 whole entry partner): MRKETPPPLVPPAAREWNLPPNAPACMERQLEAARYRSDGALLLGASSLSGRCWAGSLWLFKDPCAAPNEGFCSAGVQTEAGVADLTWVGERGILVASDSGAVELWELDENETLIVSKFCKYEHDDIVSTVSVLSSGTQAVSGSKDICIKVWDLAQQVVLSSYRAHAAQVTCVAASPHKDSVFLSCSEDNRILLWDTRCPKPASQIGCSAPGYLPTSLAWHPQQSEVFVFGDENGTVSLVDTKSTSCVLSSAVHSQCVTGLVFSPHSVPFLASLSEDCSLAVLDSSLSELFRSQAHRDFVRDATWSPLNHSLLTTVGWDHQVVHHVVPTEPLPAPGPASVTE

Regarding `CO/N=c1\[nH]cnc2c1ncn2[C@@H]1O[C@H]([C@](C)(O)c2ccc(Cl)c(Cl)c2)[C@@H](O)[C@H]1O` [Example 92, (2S,3S,4R,5R)-2-[(1R)-1-(3,4-dichlorophenyl)-1-hydroxy-ethyl]-5-[(6Z)-6-methoxyimino-1H-purin-9-yl]tetrahydrofuran-3,4-diol], the IC50 on PRMT5/MEP50 complex (setting [5]) is 1970 nM. In addition, in data set [1] (i.v. 1 mg/kg, N=2), the clearance was 11.3 mL/min/kg, the half-life is 110 min and the Vd is 1.13 L/kg. Moreover, in data set [1] (p.o. 1 mg/kg, N=2), the bioavailability is > 100% and the “dose normalized AUC0-inf” value was 2184 ng·kg·h/mL/mg. In data set [2], the “inhibition of sDMA in tumor samples” value is > 90%. In data set [3], the body weight loss was determined as 1%. The tumor growth inhibition in data set [3] (N=5) is 74%.

With `CO/N=c1\[nH]cnc2c1ncn2[C@@H]1O[C@H]([C@](C)(O)c2ccc(Cl)c(Cl)c2)[C@@H](O)[C@H]1O` [Example 92A, (2S,3S,4R,5R)-2-[(1R)-1-(3,4-dichlorophenyl)-1-hydroxy-ethyl]-5-[(6Z)-6-methoxyimino-1H-purin-9-yl]tetrahydrofuran-3,4-diol], the solubility at 4 h in the data set “physchem” stood at 54.7 µg/mL (≈ 120 µM).

As to `C[C@@](O)(c1ccc(Cl)c(Cl)c1)[C@H]1O[C@@H](n2cnc3/c(=N/O)nc[nH]c32)[C@H](O)[C@@H]1O` [Example 108, 9-((2R,3R,4S,5S)-5-((R)-1-(3,4-dichlorophenyl)-1-hydroxyethyl)-3,4-dihydroxytetrahydrofuran-2-yl)-3,9-dihydro-6H-purin-6-one oxime], the IC50 is 9.6 nM against PRMT5/MEP50 complex, 131 nM in data set [4] and 415 nM in the data set with Granta-519 cells.

Take `CC(=O)CC(c1ccccc1)c1c(O)c2ccccc2oc1=O` (stereo not shown) [Warfarin, reference compound]: in the data set “physchem” (positive controls in this experiment), the “FaSSIF solubility of positive controls” value fell in the range of 10 to 25 µg/mL.

On to `N/N=c1/nc[nH]c2c1ccn2[C@@H]1O[C@H]([C@H](O)c2ccc(Cl)cc2)[C@@H](O)[C@H]1O` [compound 20, 7-[(2R,3R,4S,5R)-5-[(R)-(4-chlorophenyl)-hydroxy-methyl]-3,4-dihydroxy-tetrahydrofuran-2-yl]-1H-pyrrolo[2,3-d]pyrimidin-4-one hydrazone], for which the values for the IC50 (at PRMT5/MEP50 complex (setting [5]); in data set [4]; in the data set with Granta-519 cells) were 0.6 nM, 120000 nM and 98 nM, respectively.

For the compound `CO/N=c1/nc[nH]c2c1ccn2[C@@H]1O[C@H]([C@H](O)c2ccc(Cl)cc2)[C@@H](O)[C@H]1O` [compound 36, (2R,3S,4R,5R)-2-[(R)-(4-chlorophenyl)-hydroxy-methyl]-5-(-4-methoxyimino-1H-pyrrolo[2,3-d]pyrimidin-7-yl]tetrahydrofuran-3,4-diol], the results for the IC50 (on PRMT5/MEP50 complex (setting [5]); in data set [4]; in the data set with Granta-519 cells) were 17300 nM, 102000 nM and 144 nM, respectively. In the data set “physchem”, this compound gave a solubility at 4 h of 912 µg/mL (≈ 2240 µM). The same compound gave a clearance in data set [1] (cassette, i.v. 0.25 mg/kg, N=3) of 12.3 mL/min/kg. For the same compound, in data set [1] (cassette, i.v. 0.25 mg/kg, N=3), the half-life is 72 min. The Vd in data set [1] (cassette, i.v. 0.25 mg/kg, N=3) was found to be 1.1 L/kg. Further, the bioavailability in data set [1] (cassette, p.o. 2 mg/kg, N=3) is > 120%.

With `O/N=c1/nc[nH]c2c1ccn2[C@@H]1O[C@H]([C@H](O)c2ccc(Cl)cc2)[C@@H](O)[C@H]1O` [compound 37, 7-[(2R,3R,4S,5R)-5-[(R)-(4-chlorophenyl)-hydroxy-methyl]-3,4-dihydroxy-tetrahydrofuran-2-yl]-1H-pyrrolo[2,3-d]pyrimidin-4-one oxime hydrochloride], the IC50 on PRMT5/MEP50 complex (setting [5]) was 2.4 nM; in data set [4], 8 nM; in the data set on Granta-519 cells, 22 nM.

`CO/N=c1\nc[nH]c2c1ccn2[C@@H]1O[C@H]([C@](C)(O)c2ccc(Cl)c(Cl)c2)[C@@H](O)[C@H]1O` [compound 61, 7-((2R,3R,4S,5S)-5-((R)-1-(3,4-dichlorophenyl)-1-hydroxyethyl)-3,4-dihydroxytetrahydrofuran-2-yl)-1,7-dihydro-4H-pyrrolo[2,3-d]pyrimidin-4-one O-methyl oxime]: the IC50 is 2.6 nM on PRMT5/MEP50 complex (setting [5]), 33 nM in data set [4] and 47 nM with Granta-519 cells.

As to `CO/N=c1/nc[nH]c2c1ccn2[C@@H]1O[C@H]([C@H](O)c2ccc(Cl)c(F)c2)[C@@H](O)[C@H]1O` [compound 62, 7-((2R,3R,4S,5R)-5-((R)-(4-chloro-3-fluorophenyl)(hydroxy)methyl)-3,4-dihydroxytetrahydrofuran-2-yl)-1,7-dihydro-4H-pyrrolo[2,3-d]pyrimidin-4-one O-methyl oxime], the values for the IC50 (at PRMT5/MEP50 complex (setting [5]); in data set [4]; in the data set with Granta-519 cells) were 8.6 nM, 45 nM and 63 nM, respectively.

Regarding `CO/N=c1\nc[nH]c2c1ccn2[C@@H]1O[C@H]([C@H](O)c2ccc(Cl)c(Cl)c2)[C@@H](O)[C@H]1O` [compound 69, 7-((2R,3R,4S,5R)-5-((R)-(3,4-dichlorophenyl)(hydroxy)methyl)-3,4-dihydroxytetrahydrofuran-2-yl)-1,7-dihydro-4H-pyrrolo[2,3-d]pyrimidin-4-one O-methyl oxime hydrochloride], the IC50 was found to be 1.8 nM on PRMT5/MEP50 complex (setting [5]), 28 nM in data set [4] and 32 nM in the data set with Granta-519 cells.

Take `CO/N=c1\nc[nH]c2c1ccn2[C@@H]1O[C@H]([C@H](O)c2ccc(F)c(F)c2)[C@@H](O)[C@H]1O` [compound 70, 7-((2R,3R,4S,5R)-5-((R)-(3,4-difluorophenyl)(hydroxy)methyl)-3,4-dihydroxytetrahydrofuran-2-yl)-1,7-dihydro-4H-pyrrolo[2,3-d]pyrimidin-4-one O-methyl oxime]: the figures for the IC50 (on PRMT5/MEP50 complex (setting [5]); in data set [4]; in the data set on Granta-519 cells) were 10.2 nM, 48 nM and 130 nM, respectively.

In general, solubility refers to the concentration that dissolves in the medium under given conditions. The low end stands for little dissolved substance, the high end for much dissolved substance.
